These compounds were tested against T1, Beta-galactosidase (Bos taurus, UniProt Q58D55) (assay: Inhibitory activity against Beta-galactosidase in bovine liver was determined).
T1 sequence (Q58D55 whole entry): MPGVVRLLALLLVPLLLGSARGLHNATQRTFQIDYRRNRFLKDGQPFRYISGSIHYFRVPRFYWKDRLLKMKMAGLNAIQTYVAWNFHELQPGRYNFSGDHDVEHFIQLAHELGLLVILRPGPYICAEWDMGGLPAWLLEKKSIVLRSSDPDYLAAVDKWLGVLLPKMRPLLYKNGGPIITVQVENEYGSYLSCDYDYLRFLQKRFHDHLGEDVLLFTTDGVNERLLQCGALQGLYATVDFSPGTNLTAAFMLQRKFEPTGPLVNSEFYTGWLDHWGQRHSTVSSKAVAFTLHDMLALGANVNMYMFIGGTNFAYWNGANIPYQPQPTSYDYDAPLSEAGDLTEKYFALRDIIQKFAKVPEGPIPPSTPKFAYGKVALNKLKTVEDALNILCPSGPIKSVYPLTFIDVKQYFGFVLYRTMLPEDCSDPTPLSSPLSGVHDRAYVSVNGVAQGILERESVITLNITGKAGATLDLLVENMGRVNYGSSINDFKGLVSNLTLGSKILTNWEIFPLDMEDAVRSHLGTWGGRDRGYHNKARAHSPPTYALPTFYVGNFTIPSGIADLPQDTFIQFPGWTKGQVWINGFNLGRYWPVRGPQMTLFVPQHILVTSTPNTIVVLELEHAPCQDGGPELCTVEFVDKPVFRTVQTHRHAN
Assay type: tissue-based; call rule not given here

| SMILES | IC50 [µM] |
| --- | --- |
| CCCCCCCCNC1CC(C)[C@@H](O)[C@H](O)[C@H]1O (some centres undefined) | 37 |

Each compound was assayed against T1, Beta-galactosidase (assay: Inhibitory activity against Beta-galactosidase in bovine liver was determined;NI means no inhibition).

| SMILES | IC50 |
| --- | --- |
| CCNC1CC(C)[C@@H](O)[C@H](O)[C@H]1O (some centres undefined) | Not Active |
| CCCCNC1CC(C)[C@@H](O)[C@H](O)[C@H]1O (some centres undefined) | Not Active |
| C[C@@H]1C[C@@H](N)C(O)C(O)[C@@H]1O (single isomer, unassigned) | Not Active |
| C[C@@H]1C[C@H](N)C(O)C(O)[C@@H]1O (single isomer, unassigned) | Not Active |
| C[C@@H]1NC[C@@H](O)[C@H](O)[C@@H]1O [DEOXYFUCONOJIRIMYCIN] | Not Active |

Results, then the compound that gave them:

| IC50 | SMILES |
| --- | --- |
| Not Active | CC1CC2N=C(NCc3ccccc3)O[C@@H]2[C@@H](O)[C@@H]1O (some centres undefined) |
| Not Active | CC1CC2N=C(Nc3ccccc3)O[C@@H]2[C@@H](O)[C@@H]1O (some centres undefined) |
| Not Active | CCCCNC1=NC2CC(C)[C@@H](O)[C@H](O)[C@H]2O1 (some centres undefined) |

Reference: ChEMBL document CHEMBL1135384, “Convenient synthesis and evaluation of enzyme inhibitory activity of several N-alkyl-, N-phenylalkyl, and cyclic isourea derivatives of 5a-carba-alpha-DL-fucopyranosylamine” (Bioorg Med Chem Lett, 2002)
